Results on 14 compounds are retold here after PubChem BioAssay AID192 (DTP/NCI, 2004).

Where “and” joins values, the source holds several entries; their conditions need not be identical. Equal values may be shown once. Inconclusive results and toxic doses are left out.

In the test the test system is BDF1 mice, B16 melanoma ip, median survival T/C. The test is described as follows: NCI In Vivo Anticancer Drug Screen. Data for tumor model B16 Melanoma (intraperitoneal) in B6D2F1 (BDF1) mice. To be noted: endpoint: median survival time, higher = longer survival. Put shortly:
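Antitumor activity is assessed in mice bearing a transplanted tumor, with survival or tumor size compared against vehicle-dosed controls and expressed as T/C.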

The mark [1] stands for this setting: dose: 0.25 mg/kg/injection, schedule: Q01DX009 (ip), vehicle: water.
Setting [2] is: dose: 12.5 mg/kg/injection, schedule: Q01DX009 (ip), vehicle: saline.
The mark [3] stands for this setting: dose: 25.0 mg/kg/injection, schedule: Q01DX009 (ip), vehicle: saline.
The mark [4] stands for this setting: dose: 50.0 mg/kg/injection, schedule: Q01DX009 (ip), vehicle: saline.
Where [5] appears, read: dose: 50.0 mg/kg/injection, schedule: Q01DX009 (ip), vehicle: saline with Tween-80.
[6] abbreviates: dose: 25.0 mg/kg/injection, schedule: Q01DX009 (ip), vehicle: saline with Tween-80.
The mark [7] stands for this setting: dose: 100.0 mg/kg/injection, schedule: Q01DX009 (ip), vehicle: saline with Tween-80.
The mark [8] stands for this setting: dose: 200.0 mg/kg/injection, schedule: Q01DX009 (ip), vehicle: saline with Tween-80.
Setting [9] is: dose: 400.0 mg/kg/injection, schedule: Q01DX009 (ip), vehicle: saline with Tween-80.

On to `CC[C@]1(O)C[C@H]2CN(CCc3c([nH]c4ccccc34)[C@@](C(=O)OC)(c3cc4c(cc3OC)N(C)[C@H]3[C@@](O)(C(=O)OC)[C@H](OC(C)=O)[C@]5(CC)C=CCN6CC[C@]43[C@@H]65)C2)C1`, for which the T/C by setting is: (dose: 0.03 mg/kg/injection, schedule: Q01DX009 (ip), vehicle: saline) 152 % of control; (dose: 0.05 mg/kg/injection, schedule: Q01DX009 (ip), vehicle: saline) 161 % of control; (dose: 0.06 mg/kg/injection, schedule: Q01DX009 (ip), vehicle: water) 165 % of control; (dose: 0.1 mg/kg/injection, schedule: Q01DX009 (ip), vehicle: saline) 152 % of control and 155 % of control; (dose: 0.12 mg/kg/injection, schedule: Q01DX009 (ip), vehicle: water) 110 % of control; (dose: 0.2 mg/kg/injection, schedule: Q01DX009 (ip), vehicle: saline) 186 % of control and 189 % of control. Moreover, the T/C is 196 % of control (dose: 0.22 mg/kg/injection, schedule: Q01DX009 (ip), vehicle: saline); 197 % of control (dose: 0.22 mg/kg/injection, schedule: Q01DX009 (ip), vehicle: water); 163 % of control and 216 % of control under setting [1]; 240 % of control (dose: 0.36 mg/kg/injection, schedule: Q01DX009 (ip), vehicle: saline); 181 % of control (dose: 0.36 mg/kg/injection, schedule: Q01DX009 (ip), vehicle: water); 162 % of control (dose: 0.39 mg/kg/injection, schedule: Q04DX003 (ip), vehicle: saline). In addition, the T/C is, setting by setting: (dose: 0.4 mg/kg/injection, schedule: Q01DX009 (ip), vehicle: saline) 219 % of control; (dose: 0.5 mg/kg/injection, schedule: Q04DX003 (ip), vehicle: saline) 154 % of control; (dose: 0.6 mg/kg/injection, schedule: Q01DX009 (ip), vehicle: saline) 250 % of control; (dose: 0.63 mg/kg/injection, schedule: Q04DX003 (ip), vehicle: saline) 151 % of control; (dose: 0.65 mg/kg/injection, schedule: Q04DX003 (ip), vehicle: saline) 164 % of control; (dose: 0.8 mg/kg/injection, schedule: Q01DX009 (ip), vehicle: saline) 260 % of control and 299 % of control. Besides, the T/C (dose: 0.8 mg/kg/injection, schedule: Q04DX003 (ip), vehicle: water) is 161 % of control; the T/C (dose: 1.0 mg/kg/injection, schedule: Q04DX003 (ip), vehicle: saline) was 170 % of control; the T/C (dose: 1.08 mg/kg/injection, schedule: Q04DX003 (ip), vehicle: saline) was 201 % of control; the T/C (dose: 1.44 mg/kg/injection, schedule: Q04DX003 (ip), vehicle: water) is 190 % of control; the T/C (dose: 1.8 mg/kg/injection, schedule: Q04DX003 (ip), vehicle: saline) is 206 % of control; the T/C (dose: 2.0 mg/kg/injection, schedule: Q04DX003 (ip), vehicle: saline) is 212 % of control. In addition, the T/C reads like this: (dose: 2.4 mg/kg/injection, schedule: Q04DX003 (ip), vehicle: water) 221 % of control; (dose: 2.5 mg/kg/injection, schedule: Q04DX003 (ip), vehicle: saline) 189 % of control; (dose: 3.2 mg/kg/injection, schedule: Q04DX003 (ip), vehicle: water) 224 % of control; (dose: 4.0 mg/kg/injection, schedule: Q04DX003 (ip), vehicle: saline) 254 % of control; (dose: 4.8 mg/kg/injection, schedule: Q01DX001 (ip), vehicle: water) 158 % of control; (dose: 216.0 micrograms/kg/injection, schedule: Q01DX009 (ip), vehicle: saline) 197 % of control. Further, the T/C was 155 % of control (dose: 360.0 micrograms/kg/injection, schedule: Q01DX009 (ip), vehicle: water); 158 % of control and 163 % of control (dose: 389.0 micrograms/kg/injection, schedule: Q04DX003 (ip), vehicle: saline); 216 % of control (dose: 600.0 micrograms/kg/injection, schedule: Q01DX009 (ip), vehicle: saline); 152 % of control and 171 % of control and 197 % of control (dose: 648.0 micrograms/kg/injection, schedule: Q04DX003 (ip), vehicle: saline); 198 % of control (dose: 1080.0 micrograms/kg/injection, schedule: Q04DX003 (ip), vehicle: saline); 203 % of control and 230 % of control (dose: 1800.0 micrograms/kg/injection, schedule: Q04DX003 (ip), vehicle: saline). Further, the T/C (dose: 3000.0 micrograms/kg/injection, schedule: Q04DX003 (ip), vehicle: saline) was 213 % of control and 267 % of control.

With `CC(C)N(Cc1ccccc1)CC(O)c1ccc(Cl)cc1` (configuration not stated), the T/C by setting is: under setting [2], 94 % of control; under setting [3], 86 % of control; under setting [4], 101 % of control.

Take `Cn1c(=O)c2c(ncn2C)n(C)c1=O`: the T/C runs as follows: under setting [4], 116 % of control; (dose: 100.0 mg/kg/injection, schedule: Q01DX009 (ip), vehicle: saline) 103 % of control; (dose: 200.0 mg/kg/injection, schedule: Q01DX009 (ip), vehicle: saline) 109 % of control.

On to `Clc1ccccc1C=Nc1ccc2c(c1)Cc1ccccc1-2`, for which the T/C is 96 % of control (dose: 100.0 mg/kg/injection, schedule: Q01DX009 (ip), vehicle: Klucel (hydroxypropylcellulose) (HPC)); 96 % of control (dose: 200.0 mg/kg/injection, schedule: Q01DX009 (ip), vehicle: Klucel (hydroxypropylcellulose) (HPC)); 87 % of control (dose: 400.0 mg/kg/injection, schedule: Q01DX009 (ip), vehicle: Klucel (hydroxypropylcellulose) (HPC)).

In the case of `C=C(C)C(=O)OCC12CCC(C)=CC1OC1C(O)C(OC(=O)CCl)C2(C)C12CO2` (configuration not stated), the T/C runs as follows: under setting [1], 122 % of control; (dose: 0.5 mg/kg/injection, schedule: Q01DX009 (ip), vehicle: water) 124 % of control; (dose: 1.0 mg/kg/injection, schedule: Q01DX009 (ip), vehicle: water) 152 % of control; (dose: 2.0 mg/kg/injection, schedule: Q01DX009 (ip), vehicle: water) 152 % of control.

As to `CCCCCCCCCCCCCC(=O)N(C)C`, the T/C is, setting by setting: under setting [2], 97 % of control; under setting [3], 97 % of control; under setting [5], 93 % of control.

Turning to `O=C(O)C1OC1C(=O)O` (configuration not stated), the T/C by setting is: (dose: 75.0 mg/kg/injection, schedule: Q01DX009 (ip), vehicle: saline) 120 % of control; (dose: 300.0 mg/kg/injection, schedule: Q01DX009 (ip), vehicle: saline) 118 % of control.

`CN(C)CCCN=Cc1cc(Cl)ccc1O.CN(C)CCCN=Cc1cc(Cl)ccc1O.[Ni+2]`: the T/C runs as follows: (dose: 6.25 mg/kg/injection, schedule: Q01DX009 (ip), vehicle: saline with Tween-80) 122 % of control; (dose: 12.5 mg/kg/injection, schedule: Q01DX009 (ip), vehicle: saline with Tween-80) 116 % of control; under setting [6], 111 % of control.

For the compound `Cc1nnc(NC(=O)CCl)s1`, the T/C by setting is: under setting [6], 97 % of control; under setting [5], 105 % of control; under setting [7], 97 % of control.

As for `CCN(Cc1ccc(Cl)c(Cl)c1)c1ccc2nc(N)nc(N)c2c1C`, the T/C (dose: 3.12 mg/kg/injection, schedule: Q01DX009 (ip), vehicle: distilled water + Tween-80) is 110 % of control; the T/C (dose: 3.13 mg/kg/injection, schedule: Q01DX009 (ip), vehicle: Klucel (hydroxypropylcellulose) (HPC)) was 89 % of control; the T/C (dose: 6.25 mg/kg/injection, schedule: Q01DX009 (ip), vehicle: Klucel (hydroxypropylcellulose) (HPC)) is 94 % of control; the T/C (dose: 6.25 mg/kg/injection, schedule: Q01DX009 (ip), vehicle: distilled water + Tween-80) was 115 % of control; the T/C (dose: 12.5 mg/kg/injection, schedule: Q01DX009 (ip), vehicle: distilled water + Tween-80) was 122 % of control.

`Cc1ccc(Cl)cc1NC(=O)Nc1ccc(C)c(NC(=O)Nc2cc(Cl)ccc2C)c1`: the T/C reads like this: under setting [7], 90 % of control; under setting [8], 95 % of control; under setting [9], 90 % of control.

On to `N#Cc1ccccc1C(C#N)c1ccc([N+](=O)[O-])cc1` (configuration not stated), for which the T/C is 100 % of control under setting [7] and 90 % of control under setting [8].

`CCOc1ccc(NC(=O)C(C)O)cc1` (configuration not stated): the T/C under setting [7] was 97 % of control, the T/C under setting [8] is 97 % of control and the T/C under setting [9] was 91 % of control.

With `NC(=O)CC(NC(=O)OCc1ccccc1)C(N)=O` (configuration not stated), the T/C reads like this: (dose: 100.0 mg/kg/injection, schedule: Q04DX003 (ip), vehicle: Klucel (hydroxypropylcellulose) (HPC)) 100 % of control; (dose: 200.0 mg/kg/injection, schedule: Q04DX003 (ip), vehicle: Klucel (hydroxypropylcellulose) (HPC)) 87 % of control; (dose: 400.0 mg/kg/injection, schedule: Q04DX003 (ip), vehicle: Klucel (hydroxypropylcellulose) (HPC)) 87 % of control.
